Test results from PMC5908784, “Extracellular loops 2 and 3 of the calcitonin receptor selectively modify agonist binding and efficacy” (Biochemical Pharmacology, 2018).
Changes are numbered by the printed parent chain. Read-outs that look alike come from different tables or passages of the source. Where a SMILES comes first, the peptide text is derived from it. Bridges are numbered along the chain shown (N, C = ends).

How the values were obtained:
Experiment in all cases: ERK1/2 phosphorylation
Assay type in all cases: cell-based
[1] = molecular target: T1, hCTR E294A (Homo sapiens, UniProt P30988, E294A); conditions: for Emax: read-out: Emax (% WT); for EC50: pERK, three-parameter logistic fit
T1 construct: c-Myc (N); expressed in transfected cells
T1 sequence (P30988 25-474 E294A): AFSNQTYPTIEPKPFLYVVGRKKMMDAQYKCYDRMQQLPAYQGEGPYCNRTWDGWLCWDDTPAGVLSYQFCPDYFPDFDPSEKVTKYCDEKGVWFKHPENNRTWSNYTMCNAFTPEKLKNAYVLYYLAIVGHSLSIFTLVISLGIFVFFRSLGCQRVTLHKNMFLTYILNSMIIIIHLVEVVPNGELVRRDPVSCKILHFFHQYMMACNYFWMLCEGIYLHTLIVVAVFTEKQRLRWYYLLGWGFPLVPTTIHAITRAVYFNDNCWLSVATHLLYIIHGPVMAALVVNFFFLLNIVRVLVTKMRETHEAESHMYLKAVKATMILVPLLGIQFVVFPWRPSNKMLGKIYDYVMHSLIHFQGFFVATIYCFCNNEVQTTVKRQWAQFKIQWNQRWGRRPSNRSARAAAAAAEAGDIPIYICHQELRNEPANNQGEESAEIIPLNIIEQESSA
Outline: (§1)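 Read-out is phospho-ERK1/2, reported relative to the 10% FBS maximum taken at 6 min. Wells held 2.5 × 10^4 cells seeded the night before. Potency and efficacy reflect functional affinity, efficacy and stimulus-response coupling combined.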

[2] = molecular target: T2, hCTR L298A (Homo sapiens, UniProt P30988, L298A); conditions: CV1-FlpIn cells, mean ± S.E.M.; for Emax: pERK maximal response; for EC50: pERK, three-parameter logistic fit
T2 construct: c-Myc (N); expressed in transfected cells
T2 sequence (P30988 25-474 L298A): T1 sequence (P30988 25-474 E294A) with A270E, L274A
Outline: as §1

[3] = molecular target: T3, hCTR N286A (Homo sapiens, UniProt P30988, N286A); conditions: CV1-FlpIn cells, mean ± S.E.M.; for Emax: pERK maximal response; for EC50: pERK, three-parameter logistic fit
T3 construct: c-Myc (N); expressed in transfected cells
T3 sequence (P30988 25-474 N286A): T1 sequence (P30988 25-474 E294A) with N262A, A270E
Outline: as §1

[4] = molecular target: T4, hCTR V283A (Homo sapiens, UniProt P30988, V283A); conditions: CV1-FlpIn cells, mean ± S.E.M.; for Emax: pERK maximal response; for EC50: pERK, three-parameter logistic fit
T4 construct: expressed in transfected cells
T4 sequence (P30988 25-474 V283A): T1 sequence (P30988 25-474 E294A) with V259A, A270E
Outline: as §1

[5] = molecular target: T5, hCTR V293A (Homo sapiens, UniProt P30988, V293A); conditions: CV1-FlpIn cells, mean ± S.E.M.; for Emax: pERK maximal response; for EC50: pERK, three-parameter logistic fit
T5 construct: c-Myc (N); expressed in transfected cells
T5 sequence (P30988 25-474 V293A): T1 sequence (P30988 25-474 E294A) with V269A, A270E
Outline: as §1

[6] = pERK maximal response, hCTR E294A, CV1-FlpIn cells, mean ± S.E.M.
[7] = hCTR E294A, CV1-FlpIn cells, mean ± S.E.M.

| Emax [1, 6] [%] | EC50 [1, 7] [nM] | EC50 [2] [nM] | EC50 [3] [nM] | EC50 [4] [nM] | EC50 [5] [nM] | Structure (SMILES) | Emax [1] [%] | Emax [2] [%] | Emax [3] [%] | Emax [4] [%] | Emax [5] [%] |
| --- | --- | --- | --- | --- | --- | --- | --- | --- | --- | --- | --- |
| – | – | – | – | – | – | CC[C@H](C)[C@H](NC(=O)[C@H](C)NC(=O)[C@@H](NC(=O)[C@H](CCC(N)=O)NC(=O)[C@@H]1CCCN1C(=O)[C@H](Cc1ccccc1)NC(=O)[C@@H](NC(=O)[C@H](Cc1c[nH]cn1)NC(=O)[C@H](Cc1ccccc1)NC(=O)[C@H](CCCCN)NC(=O)[C@H](CC(N)=O)NC(=O)[C@H](Cc1ccccc1)NC(=O)[C@H](CC(=O)O)NC(=O)[C@H](CCC(N)=O)NC(=O)[C@@H](NC(=O)[C@H](Cc1ccc(O)cc1)NC(=O)[C@@H](NC(=O)CNC(=O)[C@H](CC(C)C)NC(=O)[C@H](CCSC)NC(=O)[C@@H]1CSSC[C@H](N)C(=O)NCC(=O)N[C@@H](CC(N)=O)C(=O)N[C@@H](CC(C)C)C(=O)N[C@@H](CO)C(=O)N[C@@H]([C@@H](C)O)C(=O)N1)[C@@H](C)O)[C@@H](C)O)[C@@H](C)O)[C@@H](C)O)C(=O)NCC(=O)N[C@H](C(=O)NCC(=O)N[C@@H](C)C(=O)N1CCC[C@H]1C(N)=O)C(C)C [hCT] | 125 ± 10 | 84 ± 10 | 52 ± 5 | 155 ± 14 | 130 ± 8 |
| 66 ± 15 | 123 | 75.9 | 12.9 | 60.3 | 52.5 | CC(C)C[C@H](NC(=O)CNC(=O)[C@H](C)NC(=O)[C@H](CC(C)C)NC(=O)[C@H](CCCNC(=N)N)NC(=O)[C@H](Cc1cnc[nH]1)NC(=O)[C@@H](NC(=O)[C@@H](NC(=O)[C@@H]1CSSC[C@H](NC(=O)[C@H](C)N)C(=O)N[C@@H](CC(=O)O)C(=O)N[C@@H]([C@@H](C)O)C(=O)N[C@@H](C)C(=O)N[C@@H]([C@@H](C)O)C(=O)N1)C(C)C)[C@@H](C)O)C(=O)N[C@@H](CC(C)C)C(=O)N[C@@H](CO)C(=O)N[C@@H](CCCNC(=N)N)C(=O)N[C@@H](CO)C(=O)NCC(=O)NCC(=O)N[C@H](C(=O)N[C@H](C(=O)N[C@@H](CCCCN)C(=O)N[C@@H](CC(N)=O)C(=O)N[C@@H](CC(N)=O)C(=O)N[C@@H](Cc1ccccc1)C(=O)N[C@H](C(=O)N1CCC[C@H]1C(=O)N[C@H](C(=O)N[C@@H](CC(N)=O)C(=O)N[C@H](C(=O)NCC(=O)N[C@@H](CO)C(=O)N[C@@H](CCCCN)C(=O)N[C@@H](C)C(=O)N[C@@H](Cc1ccccc1)C(N)=O)C(C)C)[C@@H](C)O)C(C)C)C(C)C)C(C)C [hαCGRP] | – | 58 ± 8 | 31 ± 5 | 81 ± 7 | 149 ± 22 |
| 115 ± 9 | 2 | 1.1 | 1.2 | 2.24 | 3.16 | CSCC[C@H](NC(=O)CNC(=O)[C@H](CO)NC(=O)[C@H](Cc1ccccc1)NC(=O)[C@H](CCCNC(=N)N)NC(=O)[C@H](Cc1c[nH]cn1)NC(=O)[C@H](Cc1ccccc1)NC(=O)[C@H](CC(N)=O)NC(=O)[C@H](CC(N)=O)NC(=O)[C@H](CC(C)C)NC(=O)[C@H](CC(N)=O)NC(=O)[C@H](CCCNC(=N)N)NC(=O)[C@H](Cc1c[nH]c2ccccc12)NC(=O)[C@H](Cc1ccc(O)cc1)NC(=O)[C@H](C)NC(=O)[C@H](CO)NC(=O)[C@H](CC(C)C)NC(=O)[C@@H](NC(=O)[C@@H]1CSSC[C@H](N)C(=O)N[C@@H](CO)C(=O)N[C@@H](CC(N)=O)C(=O)N[C@@H](CC(C)C)C(=O)N[C@@H](CO)C(=O)N[C@@H]([C@@H](C)O)C(=O)N1)C(C)C)C(=O)NCC(=O)N[C@@H](Cc1ccccc1)C(=O)NCC(=O)N1CCC[C@H]1C(=O)N[C@@H](CCC(=O)O)C(=O)N[C@H](C(=O)N1CCC[C@H]1C(N)=O)[C@@H](C)O [pCT] (H-CSNLSTCVLSAYWRNLNNFHRFSGMGFGPETP-NH2; disulfide 1-7) | – | 73 ± 6 | 46 ± 5 | 109 ± 12 | 136 ± 11 |
| – | – | – | – | – | – | CC(C)C[C@H](NC(=O)[C@H](CC(N)=O)NC(=O)[C@H](CC(N)=O)NC(=O)[C@H](CO)NC(=O)[C@H](CO)NC(=O)[C@H](CCCNC(=N)N)NC(=O)[C@@H](NC(=O)[C@H](CC(C)C)NC(=O)[C@H](Cc1ccccc1)NC(=O)[C@H](CC(N)=O)NC(=O)[C@H](C)NC(=O)[C@H](CC(C)C)NC(=O)[C@H](CCCNC(=N)N)NC(=O)[C@H](CCC(N)=O)NC(=O)[C@@H](NC(=O)[C@H](C)NC(=O)[C@@H]1CSSC[C@H](NC(=O)[C@@H](N)CCCCN)C(=O)N[C@@H](CC(N)=O)C(=O)N[C@@H]([C@@H](C)O)C(=O)N[C@@H](C)C(=O)N[C@@H]([C@@H](C)O)C(=O)N1)[C@@H](C)O)C(C)C)C(=O)NCC(=O)N1CCC[C@H]1C(=O)N[C@H](C(=O)N[C@@H](CC(C)C)C(=O)N1CCC[C@H]1C(=O)N1CCC[C@H]1C(=O)N[C@H](C(=O)N[C@@H](CC(N)=O)C(=O)N[C@H](C(=O)NCC(=O)N[C@@H](CO)C(=O)N[C@@H](CC(N)=O)C(=O)N[C@H](C(=O)N[C@@H](Cc1ccc(O)cc1)C(N)=O)[C@@H](C)O)C(C)C)[C@@H](C)O)C(C)C [rAmy] | 72 ± 7 | 82 ± 7 | 41 ± 6 | 83 ± 9 | 67 ± 8 |
| – | – | – | – | – | – | CC(C)C[C@H](NC(=O)[C@H](CCCCN)NC(=O)CNC(=O)[C@H](CC(C)C)NC(=O)[C@@H](NC(=O)[C@@H]1CSSC[C@H](N)C(=O)N[C@@H](CO)C(=O)N[C@@H](CC(N)=O)C(=O)N[C@@H](CC(C)C)C(=O)N[C@@H](CO)C(=O)N[C@@H]([C@@H](C)O)C(=O)N1)C(C)C)C(=O)N[C@@H](CO)C(=O)N[C@@H](CCC(N)=O)C(=O)N[C@@H](CCC(=O)O)C(=O)N[C@@H](CC(C)C)C(=O)N[C@@H](Cc1c[nH]cn1)C(=O)N[C@@H](CCCCN)C(=O)N[C@@H](CC(C)C)C(=O)N[C@@H](CCC(N)=O)C(=O)N[C@H](C(=O)N[C@@H](Cc1ccc(O)cc1)C(=O)N1CCC[C@H]1C(=O)N[C@@H](CCCNC(=N)N)C(=O)N[C@H](C(=O)N[C@@H](CC(N)=O)C(=O)N[C@H](C(=O)NCC(=O)N[C@@H](CO)C(=O)NCC(=O)N[C@H](C(=O)N1CCC[C@H]1C(N)=O)[C@@H](C)O)[C@@H](C)O)[C@@H](C)O)[C@@H](C)O [sCT] | 126 ± 7 | 85 ± 6 | 59 ± 5 | 133 ± 10 | 135 ± 12 |
